Measurements from article PMC9850771 (RSC Advances, 2023).

What was measured:
Assay type in all cases: cell-based
MDA-MB-468 = test: MTT cytotoxicity assay, breast cancer cell line MDA-MB-468; details: Homo sapiens, MDA-MB-468, 24 h, read-out: IC50 MDA-MB-468
MCF7 = test: MTT cytotoxicity assay, breast cancer cell line MCF7; details: Homo sapiens; for IC50: MCF7, 24 h, read-out: IC50 MCF7
A375 = test: MTT cytotoxicity assay, melanoma cell line A375; details: Homo sapiens, A-375, 24 h, read-out: IC50 A375

Compound	IC50 (MDA-MB-468)	IC50 (MCF7)	IC50 (A375)	viability at 300 µM (MCF7; MCF7, read-out: viability value, MCF-7)
Cn1c(=O)c2c(nc(OCc3cn(CCCc4ccccc4)nn3)n2C)n(C)c1=O [Compound 22a, 1,3,7-Trimethyl-8-((1-(3-phenylpropyl)-1H-1,2,3-triazol-4-yl)methoxy)-1H-purine-2,6(3H,7H)-dione]	256 ± 1.4 µM	268 ± 0.2 µM	179 ± 1.2 µM	–
Cn1c(=O)c2c(nc(OCc3cn(CCc4ccccc4)nn3)n2C)n(C)c1=O [Compound 22b, 1,3,7-Trimethyl-8-((1-phenethyl-1H-1,2,3-triazol-4-yl)methoxy)-1H-purine-2,6(3H,7H)-dione]	> 300 µM	> 300 µM	> 300 µM	–
Cn1c(=O)c2c(nc(OCc3cn(Cc4ccccc4)nn3)n2C)n(C)c1=O [Compound 22c, 8-((1-Benzyl-1H-1,2,3-triazol-4-yl)methoxy)-1,3,7-trimethyl-1H-purine-2,6(3H,7H)-dione]	> 300 µM	> 300 µM	< 12.5 µM	–
Cc1ccc(Cn2cc(COc3nc4c(c(=O)n(C)c(=O)n4C)n3C)nn2)cc1 [Compound 22d, 1,3,7-Trimethyl-8-((1-(4-methylbenzyl)-1H-1,2,3-triazol-4-yl)methoxy)-3,7-dihydro-1H-purine-2,6-dione]	> 300 µM	> 300 µM	194 ± 1.6 µM	–
Cn1c(=O)c2c(nc(OCc3cn(C(c4ccccc4)c4ccccc4)nn3)n2C)n(C)c1=O [Compound 22e, 8-((1-Benzhydryl-1H-1,2,3-triazol-4-yl)methoxy)-1,3,7-trimethyl-1H-purine-2,6(3H,7H)-dione]	> 300 µM	284 ± 0.2 µM	286 ± 0.2 µM	–
CCCCCn1cc(COc2nc3c(c(=O)n(C)c(=O)n3C)n2C)nn1 [Compound 22f, 1,3,7-Trimethyl-8-((1-pentyl-1H-1,2,3-triazol-4-yl)methoxy)-1H-purine-2,6(3H,7H)-dione]	126 ± 0.6 µM	136 ± 0.2 µM	160 ± 1.5 µM	17 ± 3%
CCCCCCn1cc(COc2nc3c(c(=O)n(C)c(=O)n3C)n2C)nn1 [Compound 22g, 8-((1-Hexyl-1H-1,2,3-triazol-4-yl)methoxy)-1,3,7-trimethyl-1H-purine-2,6(3H,7H)-dione]	> 300 µM	> 300 µM	> 300 µM	–
CCCCCCCn1cc(COc2nc3c(c(=O)n(C)c(=O)n3C)n2C)nn1 [Compound 22h, 8-((1-Heptyl-1H-1,2,3-triazol-4-yl)methoxy)-1,3,7-trimethyl-1H-purine-2,6(3H,7H)-dione]	> 300 µM	> 300 µM	> 300 µM	–
CCCCCCCCn1cc(COc2nc3c(c(=O)n(C)c(=O)n3C)n2C)nn1 [Compound 22i, 1,3,7-Trimethyl-8-((1-octyl-1H-1,2,3-triazol-4-yl)methoxy)-1H-purine-2,6(3H,7H)-dione]	175 ± 1.4 µM	165 ± 1.8 µM	146 ± 1.5 µM	–
CCCCCCCCCCn1cc(COc2nc3c(c(=O)n(C)c(=O)n3C)n2C)nn1 [Compound 22j, 8-((1-Decyl-1H-1,2,3-triazol-4-yl)methoxy)-1,3,7-trimethyl-1H-purine-2,6(3H,7H)-dione]	> 300 µM	> 300 µM	> 300 µM	–
CN(Cc1cnc2nc(N)nc(N)c2n1)c1ccc(C(=O)N[C@@H](CCC(=O)O)C(=O)O)cc1 [MTX, Methotrexate, reference compound]	37 ± 1.9 µM	30 ± 2.9 µM	32 ± 2.2 µM	–
